From US10774112B2, “Biomimetic peptide and biodegradable delivery platform for the treatment of angiogenesis- and lymphangiogenesis-dependent diseases” (THE JOHNS HOPKINS UNIVERSITY, priority 2013, dated 2020)

Experiments:
[1] = tested on: hepatocyte growth factor (HGF) signaling; test: HGF signaling in vitro in LEC; format: cell-based; conditions: FIG. 6
[2] = tested on: VEGF-induced neovascularization; test: rho/VEGF transgenic mice with VEGF-induced neovascularization; format: in vivo; conditions: compared to a control; FIGS. 13C-E
Experimental: Transgenic Mice with VEGF-Induced Neovascularization.
At postnatal day 14, hemizygous rho/VEGF mice were given an intraocular injection of 1 μL of 5% DMSO/water, 1 μL of 5% DMSO/water containing 0.1 μg or 1 μg of SP2043 (SEQ ID No: 1) in one eye. Intraocular injections were done under a dissecting microscope with a Harvard Pump Microinjection System (Harvard Apparatus, Holliston, Mass.) and pulled glass micropipettes. At postnatal day 21, the total area of subretinal neovascularization (NV) per eye was quantified. Briefly, mice were anesthetized and perfused with 1 mL of PBS containing 25 mg/mL of fluorescein-labeled dextran (average molecular weight of 2×10^6, Sigma-Aldrich, St. Louis, Mo.). The eyes were removed and fixed for 1 hour in 10% phosphate-buffered formalin. […] The retinas were examined by fluorescence microscopy at 200× magnification, which provides a narrow depth of field so that when focusing on NV on the outer surface of the retina, the remainder of the retinal vessels are out of focus, allowing easy delineation of the NV. […] By using Image analysis software (Image-Pro Plus; Media Cybernetics, Silver Spring, Md.), an investigator masked with respect to treatment group allowed the software to recognize and calculated the total area of subretinal NV per eye as previously described.

[3] = tested on: estrogen receptor positive cell line MCF-7; test: Proliferation assay (WST-1), MCF-7; format: cell-based; conditions: in vitro; FIG. 7
Experimental: (§1) A colorimetric based proliferation assay using WST-1 (Roche, 11644807001) proliferation reagent was carried out using HREC cells, HUVEC cells, and the breast cancer cells MDA-MB-231, MCF-7, and SUM149. 2000 cells/well were plated in 96-well plates and allowed to adhere overnight. On the following day, the media was exchanged with fully supplemented media containing peptides or equivalent DMSO vehicle for the controls. Three days later, the media containing the peptides was replaced with serum-free EBM-2 media containing WST-1 reagent and the plates were incubated for four hours as per the manufacturer's recommendations. Changes in color, due to the formazan dye resulted from the cleavage of the tetrazolium salt WST-1 by the mitochondrial succinate-tetrazolium reductase, were read on a Victor V fluorescence plate reader (Perkin Elmer, Mass.) by measuring the absorbance at 450 nm. Dose response curves of percent live cells (in comparison to untreated cells, but incubated in complete media with 0.2% DMSO) were created. Assays were performed in at least two independent replicates and each replicate was performed using three experimental triplicates.

[4] = tested on: insulin growth factor 1 (IGF1) signaling; test: IGF1 signaling in vitro in LEC; format: cell-based; conditions: FIG. 6
HGF signaling = HGF signaling in MDA-MB-231 cells; format: cell-based, human; conditions: FIG. 8
lymphangiogenesis = test: Lymphangiogenesis in vivo (LYVE-1 staining); conditions: FIG. 11
[5] = tested on: human retinal endothelial cells (HREC); test: Migration assay (RT-CIM), HREC; format: cell-based; conditions: FIG. 2
Experimental: The inhibitory potential of the peptides was measured using a real time migration assay system based on electrical impedance (RT-CIM, ACEA Biosciences, CA). CIM 16 well plates (Roche, 05665817001) are composed of a top and bottom chamber separated by a microporous (8 μm) polycarbonate membrane. The membrane was coated with fibronectin (20 μg/mL), and 45,000 cells/well in serum free media with or without peptides were added to the top compartment. Media with chemoattractant (i.e., fully supplemented EBM-2) was added to the bottom compartment of the chamber and the plate was incubated at 37° C. for 20 hours. The sensors integrated on the bottom side of the membrane monitor and continuously record changes in impedance as the cells move through the membrane. The RT-CIM technology allows for easy quantification of cell migration by monitoring the cell index derived from the measured impedances. Assays were performed in at least two independent replicates and each replicate was performed using two experimental duplicates. Breast cancer cells MDA-MB-231 are not suitable for the RT-CIM type experiments due to their thin elongated phenotype, thus the inhibition of migration was investigated using a wound healing type assay. This assay was performed using the Oris Pro Migration assay (Platypus Technologies, CMA 1.101). […]

[6] = tested on: human retinal endothelial cells (HREC); test: Proliferation assay (WST-1), HREC; format: cell-based; conditions: FIG. 2
Experimental: as §1

LRRFSTAPFAFIDINDVINF (Artificial sequence based on human Collagen Type IV protein) [SP2043]
HGF signaling in LEC [1]: inhibit
neovascularization in rho-VEGF mouse model [2]: inhibited
proliferation of MCF-7 [3]: inhibit
IGF1 signaling in LEC [4]: inhibit
HGF signaling in MDA-MB-231 cells (HGF signaling): inhibit
lymphangiogenesis as seen by LYVE-1 staining (lymphangiogenesis): inhibited
migration of HREC [5]: inhibit
proliferation of HREC [6]: inhibit
